The target in data set [1] is Cytochrome P450 2C19 (Homo sapiens, UniProt P33261). Put plainly: Inhibition of CYP2C19 (unknown origin). In kind it is ADME.
Data set [2] in a line: Metabolic stability in human liver microsomes assessed as compound remaining at 0.5 uM incubated for 10 mins in presence of NADPH by UV absorbance based assay. Type of data set: ADME, Microsome. Conditions: read-out: Stability.
In data set [3] the target is T1, Cytochrome P450 3A4 (Homo sapiens, UniProt P08684). Kind of data set: Inhibition of CYP3A4 (unknown origin) using BFC as substrate preincubated with compound followed by substrate addition at 30 mins. In kind it is ADME.
The nature of data set [4]: Metabolic stability in mouse liver microsomes assessed as compound remaining at 0.5 uM incubated for 10 mins in presence of NADPH by UV absorbance based assay. Type of data set: ADME, Microsome. Conditions: read-out: Stability. A general note: Microsomes from liver hold many membrane-bound enzymes, among them those of drug oxidation.
The target of data set [5] is T1, Cytochrome P450 3A4. Put plainly: Inhibition of CYP3A4 (unknown origin) using BFC as substrate preincubated with compound followed by substrate addition at 5 mins. In kind it is ADME.
Data set [6] has as its target Cytochrome P450 2D6 (Homo sapiens, UniProt P10635). Put plainly: Inhibition of CYP2D6 (unknown origin). Type of data set: ADME.
In data set [7] the target is T2, Toll-like receptor 7 (Homo sapiens, UniProt Q9NYK1).
T2 sequence (Q9NYK1 whole entry): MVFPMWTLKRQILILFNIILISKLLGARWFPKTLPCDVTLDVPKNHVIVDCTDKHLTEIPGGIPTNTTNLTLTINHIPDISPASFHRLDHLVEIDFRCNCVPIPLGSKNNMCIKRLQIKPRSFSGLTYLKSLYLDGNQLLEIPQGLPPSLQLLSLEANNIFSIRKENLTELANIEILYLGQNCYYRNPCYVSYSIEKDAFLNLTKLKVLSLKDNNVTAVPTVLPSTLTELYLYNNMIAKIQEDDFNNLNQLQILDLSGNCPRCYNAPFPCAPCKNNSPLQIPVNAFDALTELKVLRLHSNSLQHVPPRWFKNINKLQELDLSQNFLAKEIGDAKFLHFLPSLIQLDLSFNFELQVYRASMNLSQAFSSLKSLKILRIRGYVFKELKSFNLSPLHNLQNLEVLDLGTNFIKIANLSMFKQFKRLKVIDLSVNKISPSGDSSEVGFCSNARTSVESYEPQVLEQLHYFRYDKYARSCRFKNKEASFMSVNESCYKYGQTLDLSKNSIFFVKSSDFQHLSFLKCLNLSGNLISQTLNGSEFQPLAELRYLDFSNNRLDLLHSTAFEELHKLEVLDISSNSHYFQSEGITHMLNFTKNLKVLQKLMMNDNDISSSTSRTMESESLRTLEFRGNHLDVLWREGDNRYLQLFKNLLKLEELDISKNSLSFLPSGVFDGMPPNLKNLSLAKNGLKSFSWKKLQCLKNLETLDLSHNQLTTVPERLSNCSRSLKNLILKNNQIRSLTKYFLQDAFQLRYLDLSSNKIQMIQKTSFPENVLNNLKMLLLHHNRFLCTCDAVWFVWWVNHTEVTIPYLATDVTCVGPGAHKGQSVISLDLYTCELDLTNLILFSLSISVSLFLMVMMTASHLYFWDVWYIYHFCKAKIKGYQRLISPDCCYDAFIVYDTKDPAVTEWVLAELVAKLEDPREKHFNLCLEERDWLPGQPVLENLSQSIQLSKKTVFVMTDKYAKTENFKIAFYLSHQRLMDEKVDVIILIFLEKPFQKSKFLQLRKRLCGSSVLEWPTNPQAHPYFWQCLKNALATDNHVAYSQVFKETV
Kind of data set: Agonist activity at human TLR7 in HEK-Blue hTLR7 cells harboring SEAP reporter transgene incubated for 18 hrs by quanti-blue reagent based assay. Type of data set: cell-based.

Data set [8] concerns the target T1, Cytochrome P450 3A4. Put plainly: Inhibition of CYP3A4 (unknown origin) using BFC as substrate. In kind it is ADME.
Data set [9] deals with T3, Toll-like receptor 7 (Mus musculus, UniProt P58681).
T3 sequence (P58681 whole entry): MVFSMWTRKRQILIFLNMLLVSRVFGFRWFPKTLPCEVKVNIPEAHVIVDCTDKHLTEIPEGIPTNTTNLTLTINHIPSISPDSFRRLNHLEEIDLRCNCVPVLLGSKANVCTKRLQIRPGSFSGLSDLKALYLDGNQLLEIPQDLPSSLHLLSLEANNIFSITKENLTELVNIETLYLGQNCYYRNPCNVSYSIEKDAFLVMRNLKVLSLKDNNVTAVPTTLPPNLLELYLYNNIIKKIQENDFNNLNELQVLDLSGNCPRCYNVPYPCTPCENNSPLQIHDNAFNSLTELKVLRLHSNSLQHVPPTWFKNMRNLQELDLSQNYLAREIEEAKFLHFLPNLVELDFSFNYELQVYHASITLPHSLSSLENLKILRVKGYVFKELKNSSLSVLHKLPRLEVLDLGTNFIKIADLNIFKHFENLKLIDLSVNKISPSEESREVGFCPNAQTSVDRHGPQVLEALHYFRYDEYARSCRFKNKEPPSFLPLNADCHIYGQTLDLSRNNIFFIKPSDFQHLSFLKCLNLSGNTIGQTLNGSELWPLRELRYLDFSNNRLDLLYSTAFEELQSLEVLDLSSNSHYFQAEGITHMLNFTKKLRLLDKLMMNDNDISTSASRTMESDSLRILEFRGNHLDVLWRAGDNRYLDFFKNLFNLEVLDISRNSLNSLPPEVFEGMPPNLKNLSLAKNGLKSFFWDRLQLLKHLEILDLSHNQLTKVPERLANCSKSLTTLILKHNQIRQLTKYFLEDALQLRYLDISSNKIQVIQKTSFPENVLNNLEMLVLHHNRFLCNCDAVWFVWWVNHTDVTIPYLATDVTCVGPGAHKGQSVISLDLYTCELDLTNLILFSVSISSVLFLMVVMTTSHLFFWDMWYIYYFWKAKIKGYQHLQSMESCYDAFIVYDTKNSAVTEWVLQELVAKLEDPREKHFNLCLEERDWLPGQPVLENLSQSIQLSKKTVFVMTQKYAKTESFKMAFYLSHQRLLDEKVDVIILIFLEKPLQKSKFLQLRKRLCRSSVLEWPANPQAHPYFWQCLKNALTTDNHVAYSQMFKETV
Put plainly: (§1) Agonist activity at mouse TLR7.

Data set [10] can be described thus: Cytotoxicity against PHA-activated T-cells (unknown origin) assessed as inhibition of IL-2 induced cell proliferation measured after 72 hrs by MTS assay. In kind it is toxicity, cell-based. A general note: Tetrazolium dyes change colour on reduction, which living cells bring about.
Data set [11] concerns the target T4, Cytochrome P450 1A2 (Homo sapiens, UniProt P05177).
T4 sequence (P05177 whole entry): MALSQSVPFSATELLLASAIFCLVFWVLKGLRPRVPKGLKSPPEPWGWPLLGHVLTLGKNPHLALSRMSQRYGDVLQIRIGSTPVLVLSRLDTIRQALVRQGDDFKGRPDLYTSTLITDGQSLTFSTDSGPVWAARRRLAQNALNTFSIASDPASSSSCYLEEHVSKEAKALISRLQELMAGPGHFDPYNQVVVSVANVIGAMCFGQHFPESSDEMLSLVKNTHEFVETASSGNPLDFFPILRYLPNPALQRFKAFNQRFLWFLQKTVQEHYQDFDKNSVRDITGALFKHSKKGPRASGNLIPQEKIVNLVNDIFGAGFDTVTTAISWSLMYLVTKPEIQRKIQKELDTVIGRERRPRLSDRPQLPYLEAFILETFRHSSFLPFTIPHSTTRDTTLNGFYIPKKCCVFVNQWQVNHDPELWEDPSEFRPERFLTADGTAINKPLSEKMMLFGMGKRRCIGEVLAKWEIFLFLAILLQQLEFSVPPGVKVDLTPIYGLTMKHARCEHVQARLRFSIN
Kind of data set: Inhibition of CYP1A2 (unknown origin). In kind it is ADME.

Data set [12] concerns the target Cytochrome P450 2C9 (Homo sapiens, UniProt P11712). Kind of data set: Inhibition of CYP2C9 (unknown origin). Type of data set: ADME.
The target in data set [13] is Voltage-gated inwardly rectifying potassium channel KCNH2 (Homo sapiens, UniProt Q12809). Kind of data set: Inhibition of hERG. In kind it is toxicity. (The hERG channel carries a current that helps repolarise heart muscle cells.)
The target of data set [14] is T5, Cytochrome P450 2C8 (Homo sapiens, UniProt P10632).
T5 sequence (P10632 whole entry): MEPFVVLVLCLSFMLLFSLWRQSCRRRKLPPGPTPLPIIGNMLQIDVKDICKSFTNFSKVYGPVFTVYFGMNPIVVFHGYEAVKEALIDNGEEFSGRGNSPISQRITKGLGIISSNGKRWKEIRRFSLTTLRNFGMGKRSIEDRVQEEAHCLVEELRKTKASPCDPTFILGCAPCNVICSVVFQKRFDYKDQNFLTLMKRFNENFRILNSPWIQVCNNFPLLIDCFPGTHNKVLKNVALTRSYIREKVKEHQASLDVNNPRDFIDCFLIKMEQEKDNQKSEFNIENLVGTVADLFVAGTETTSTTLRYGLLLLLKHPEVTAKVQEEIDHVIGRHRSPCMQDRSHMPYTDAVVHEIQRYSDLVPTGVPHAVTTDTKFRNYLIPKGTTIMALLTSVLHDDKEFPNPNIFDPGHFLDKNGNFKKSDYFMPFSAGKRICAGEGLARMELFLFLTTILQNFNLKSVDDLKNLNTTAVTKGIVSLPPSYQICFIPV
Kind of data set: Inhibition of CYP2C8 (unknown origin). In kind it is ADME.

Data set [15] deals with T6, Toll-like receptor 7 (Mus musculus) (UniProt P58681).
T6 sequence (whole entry): T3 sequence (P58681 whole entry)
The description is as §1.

The values that follow come from ChEMBL document CHEMBL5357082, “Identification and Optimization of Small Molecule Pyrazolopyrimidine TLR7 Agonists for Applications in Immuno-oncology” (ACS Med Chem Lett, 2024).

Each structure is given as a SMILES string. The source made the active and inactive calls. The calls are words filed in the database; no cut-off is given here. A value given as a limit tells only on which side of the number the result lay.

One may read the IC50 as the midpoint of a concentration-inhibition curve. What is called EC50 is the concentration giving half of the maximal effect.

Chain of Voltage-gated inwardly rectifying potassium channel KCNH2 (Q12809 whole entry): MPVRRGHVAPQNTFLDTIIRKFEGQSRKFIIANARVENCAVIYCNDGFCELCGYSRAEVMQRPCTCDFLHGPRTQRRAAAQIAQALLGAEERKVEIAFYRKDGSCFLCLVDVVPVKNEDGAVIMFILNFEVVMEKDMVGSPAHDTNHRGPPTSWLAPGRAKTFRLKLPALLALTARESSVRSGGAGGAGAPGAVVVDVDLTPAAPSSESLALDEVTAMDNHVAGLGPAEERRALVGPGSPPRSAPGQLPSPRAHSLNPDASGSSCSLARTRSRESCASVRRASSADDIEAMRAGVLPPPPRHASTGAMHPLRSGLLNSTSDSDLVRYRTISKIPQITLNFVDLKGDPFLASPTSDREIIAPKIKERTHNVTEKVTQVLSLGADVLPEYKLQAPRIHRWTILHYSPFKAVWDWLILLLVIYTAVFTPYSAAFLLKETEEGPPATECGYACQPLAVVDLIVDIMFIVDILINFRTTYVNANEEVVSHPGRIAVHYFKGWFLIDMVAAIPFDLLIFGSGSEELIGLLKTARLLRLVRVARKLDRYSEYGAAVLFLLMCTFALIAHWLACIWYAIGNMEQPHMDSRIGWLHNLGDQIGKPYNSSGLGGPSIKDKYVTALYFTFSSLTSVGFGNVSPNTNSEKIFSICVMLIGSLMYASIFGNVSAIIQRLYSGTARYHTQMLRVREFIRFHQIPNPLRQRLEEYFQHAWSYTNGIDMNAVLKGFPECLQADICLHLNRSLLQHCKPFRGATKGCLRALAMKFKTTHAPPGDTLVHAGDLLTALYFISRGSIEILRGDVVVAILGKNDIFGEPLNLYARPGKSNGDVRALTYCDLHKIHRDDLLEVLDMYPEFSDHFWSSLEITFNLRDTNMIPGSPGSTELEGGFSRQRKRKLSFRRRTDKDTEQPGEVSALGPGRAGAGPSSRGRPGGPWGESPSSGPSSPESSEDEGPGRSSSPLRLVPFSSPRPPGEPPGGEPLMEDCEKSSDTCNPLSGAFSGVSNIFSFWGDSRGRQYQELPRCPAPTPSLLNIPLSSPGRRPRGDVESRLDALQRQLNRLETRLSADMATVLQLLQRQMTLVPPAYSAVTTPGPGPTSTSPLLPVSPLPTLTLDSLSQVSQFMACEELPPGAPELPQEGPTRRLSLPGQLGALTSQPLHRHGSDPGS
T1 sequence (P08684 whole entry): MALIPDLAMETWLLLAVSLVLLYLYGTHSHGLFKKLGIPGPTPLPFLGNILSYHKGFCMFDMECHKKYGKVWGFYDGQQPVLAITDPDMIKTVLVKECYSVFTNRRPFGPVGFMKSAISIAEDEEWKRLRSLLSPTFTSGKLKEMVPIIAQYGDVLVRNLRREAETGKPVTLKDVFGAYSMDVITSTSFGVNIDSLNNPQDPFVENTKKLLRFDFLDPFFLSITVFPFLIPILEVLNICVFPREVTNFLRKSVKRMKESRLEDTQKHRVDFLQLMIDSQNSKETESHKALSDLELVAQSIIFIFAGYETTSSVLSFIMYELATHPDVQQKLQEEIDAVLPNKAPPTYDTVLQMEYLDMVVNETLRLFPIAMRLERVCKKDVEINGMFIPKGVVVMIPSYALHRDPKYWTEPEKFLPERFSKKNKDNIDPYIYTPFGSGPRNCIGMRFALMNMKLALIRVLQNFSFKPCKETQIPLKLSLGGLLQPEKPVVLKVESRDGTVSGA
Chain of Cytochrome P450 2C19 (P33261 whole entry): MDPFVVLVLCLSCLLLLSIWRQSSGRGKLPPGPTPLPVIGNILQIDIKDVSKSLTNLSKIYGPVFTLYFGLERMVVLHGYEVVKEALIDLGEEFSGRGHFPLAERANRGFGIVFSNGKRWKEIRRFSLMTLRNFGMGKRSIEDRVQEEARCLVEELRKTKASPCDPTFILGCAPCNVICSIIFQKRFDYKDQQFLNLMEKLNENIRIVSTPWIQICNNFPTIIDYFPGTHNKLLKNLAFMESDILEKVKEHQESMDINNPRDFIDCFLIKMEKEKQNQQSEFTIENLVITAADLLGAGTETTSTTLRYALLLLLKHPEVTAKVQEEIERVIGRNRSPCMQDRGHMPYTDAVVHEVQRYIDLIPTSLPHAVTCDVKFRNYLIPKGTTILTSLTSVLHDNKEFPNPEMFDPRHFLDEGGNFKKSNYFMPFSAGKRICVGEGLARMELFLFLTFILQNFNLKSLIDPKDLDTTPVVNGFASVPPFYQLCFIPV
Chain of Cytochrome P450 2D6 (P10635 whole entry): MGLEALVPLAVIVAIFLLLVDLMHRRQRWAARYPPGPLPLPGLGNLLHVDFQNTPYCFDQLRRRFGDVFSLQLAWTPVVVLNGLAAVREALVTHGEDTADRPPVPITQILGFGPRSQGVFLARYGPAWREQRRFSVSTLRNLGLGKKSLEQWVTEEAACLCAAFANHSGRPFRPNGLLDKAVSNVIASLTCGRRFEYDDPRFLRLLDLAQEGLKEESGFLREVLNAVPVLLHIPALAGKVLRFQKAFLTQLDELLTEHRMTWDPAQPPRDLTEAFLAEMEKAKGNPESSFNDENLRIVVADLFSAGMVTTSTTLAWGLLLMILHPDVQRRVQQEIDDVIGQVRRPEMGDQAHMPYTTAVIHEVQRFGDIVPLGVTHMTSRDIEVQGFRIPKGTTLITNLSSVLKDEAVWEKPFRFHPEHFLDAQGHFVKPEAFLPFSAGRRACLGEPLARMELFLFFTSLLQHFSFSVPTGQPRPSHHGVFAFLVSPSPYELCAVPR
Chain of Cytochrome P450 2C9 (P11712 whole entry): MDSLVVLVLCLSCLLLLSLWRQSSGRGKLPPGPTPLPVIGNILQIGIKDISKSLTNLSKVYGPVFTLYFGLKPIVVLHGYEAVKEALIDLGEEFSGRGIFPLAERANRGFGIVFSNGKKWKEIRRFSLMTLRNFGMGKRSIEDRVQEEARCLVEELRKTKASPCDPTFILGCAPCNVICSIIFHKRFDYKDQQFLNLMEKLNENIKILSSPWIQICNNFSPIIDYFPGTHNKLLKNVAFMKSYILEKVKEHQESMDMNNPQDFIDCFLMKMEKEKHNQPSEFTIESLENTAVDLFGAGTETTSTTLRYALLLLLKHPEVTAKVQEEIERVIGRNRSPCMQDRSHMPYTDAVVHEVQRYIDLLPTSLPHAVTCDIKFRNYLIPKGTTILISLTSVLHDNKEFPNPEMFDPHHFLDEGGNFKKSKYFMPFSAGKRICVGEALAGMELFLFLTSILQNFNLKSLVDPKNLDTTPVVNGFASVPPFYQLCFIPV

As to `CCCCNc1nc(N)nc2c(C3CC3)nn(Cc3ncc(C4CCNCC4)cc3OC)c12`, the IC50 was more than 20 µM in data set [1]; 10.1 µM in data set [3]; more than 20 µM in data set [5]; more than 20 µM in data set [6]; 10.1 µM in data set [8]; more than 20 µM in [11]. The IC50 was 17.6 µM in [12] and more than 20 µM in data set [14]. For the same compound, the remaining at 10 min, 0.5 µM was 97% in [2] and 30% in data set [4]. Further, the figures for the EC50 in [7] and in [9] were 0.461 µM and more than 5 µM, respectively. Besides, the IC50 at 72 h in data set [10] was determined as 20 µM. For the same compound, the “inhibition (INH)” value in data set [13] (human) is listed as “Not Active”.

Regarding `CCC[C@@H](CCO)Nc1nc(N)nc2cnn(Cc3ncc(C4CCN(C5CCNCC5)CC4)cc3OC)c12`, the 50% inhibitory concentration (IC50) in data set [1], in data set [3], in data set [5], in data set [6], in [8] and in [11] was more than 20 µM in each case. Moreover, the IC50 in [12] was more than 20 µM; in [13] it was 32.6 µM; in data set [14] it was more than 20 µM. Besides, the remaining at 10 min, 0.5 µM in data set [2] and in [4] was 100% throughout. For the same compound, the result in data set [15] was inactive. The half-maximal inhibitory concentration (IC50) at 72 h in data set [10] was more than 25 µM.

Regarding `CCC[C@@H](CCO)Nc1nc(N)nc2cnn(Cc3ncc(C4CCN(C5CCN(C)CC5)CC4)cc3OC)c12`, the IC50 in data set [1], in [3], in data set [5], in data set [6], in data set [8] and in data set [11] was more than 20 µM each time. In addition, the IC50 was more than 20 µM in [12], more than 50 µM in [13] and more than 20 µM in [14]. Also, the remaining at 10 min, 0.5 µM was determined as 99% in data set [2] and 85% in [4]. The outcome in [15] was inactive. The half-inhibitory concentration (IC50) at 72 h in [10] was more than 25 µM.

Regarding `CCCCNc1nc(N)nc2cnn(Cc3ncc(C4CCNCC4)cc3OC)c12`, the IC50 in data set [1], in [3], in data set [5], in [6], in data set [8] and in data set [11] was more than 20 µM in each case. In addition, the IC50 in data set [12] was more than 20 µM; in data set [13], 19 µM; in data set [14] it was more than 20 µM. The values for the remaining at 10 min, 0.5 µM in data set [2] and in data set [4] were 100% and 97%, respectively. Moreover, the concentration giving a half-maximal response (EC50) in [7] was 0.084 µM; in data set [9], 0.984 µM. In addition, the concentration for half-maximal inhibition (IC50) at 72 h in data set [10] is more than 25 µM.
